According to the METLIN SMRT retention time set (Domingo-Almenara et al. 2019):

Assay: gradient 5% acetonitrile 3 min, to 50% in 2 min, to 85% in 15 min, held 3 min, 100 µL/min
Details: column: Zorbax Extend-C18 2.1 x 50 mm; eluents: water / acetonitrile, 0.1% formic acid
Summary of the method: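 Each retention time is based on an adduct peak selected computationally and verified by manual inspection. Measurements used HPLC–quadrupole time-of-flight mass spectrometry in positive and negative ionization mode on mixtures of ~100 pure standards. Chromatography ran on a Zorbax Extend-C18 column (2.1 × 50 mm, 1.8 μm) at 100 μL/min with water and acetonitrile, each containing 0.1% formic acid, and dead and dwell volumes of 40 μL and 900 μL.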

SMILES	RP-LC retention time
CCN1CCN(CC(=O)N2N=C(c3cccs3)CC2c2ccc(F)cc2)C(=O)C1=O (configuration not stated)	703 s
Cc1ccc(-c2nc(C3CC(=O)N(c4ccc(C)cc4)C3)no2)cc1 (configuration not stated)	1080 s
CN1CCCn2cc(S(=O)(=O)NCc3ccc(F)cc3Cl)cc2C1=O	707 s
CCOc1ccc(-n2nc(CO)c(C(=O)NC3CCCC3)n2)cc1	1020 s
Cn1nnc2ccc(-c3noc(-c4cc(F)ccc4Cl)n3)cc21	1060 s
O=C(Nc1cnc(N2CCCC2)nc1)c1cccc(Br)c1	796 s
COC(=O)c1ccc2c(=O)n(-c3ccc(C)c(F)c3)c(N3CCSC3)nc2c1	1150 s
Cc1cccc(-c2noc(Cn3c(=O)n(-c4ccccc4C)c(=O)c4sccc43)n2)c1	1070 s
COCc1nncn1C1CN(C(=O)Nc2ccc(Cl)cc2C(F)(F)F)C1	963 s
COc1ccc(NC(=O)NCC(=O)N2CCc3ccccc32)c(OC)c1	762 s
CC(Oc1ccccc1)C(=O)NCc1nnnn1-c1ccc(Cl)cc1 (configuration not stated)	824 s
CCn1cc(CC(=O)NCc2cccc(F)c2)c2cccnc21	716 s
CC(C)c1nnc2n1CCN(C(=O)c1ccsc1)C2	596 s
CCOC(=O)N1CCN(c2ncc3c(n2)CC(C)CC3=O)CC1 (configuration not stated)	842 s
Cc1cc(NC(=O)C2CCN(C(=O)c3nc4ccccc4s3)CC2)no1	746 s
Cc1ccc(S(=O)(=O)N2CCCC(CCC(=O)O)C2)cc1 (configuration not stated)	812 s
CN1c2cc(C(=O)NCc3ccc(F)c(Cl)c3)ccc2C(=O)N2CCCCC21 (configuration not stated)	860 s
O=C(CSc1ccc(N2CCCC(C(=O)NC3CC3)C2)nn1)NCc1ccc(C(F)(F)F)cc1 (configuration not stated)	694 s
CCN1CCN(c2cc(C)c3cc(NC(=O)/C=C/c4ccc(OCCC(C)C)cc4)ccc3n2)CC1	747 s

SMILES	RP-LC retention time
CCn1cc(CCNS(=O)(=O)CC)c2cccnc21	630 s
Cn1cnc(S(=O)(=O)NCCc2noc(-c3ccncc3)n2)c1	596 s
COc1ccc2c(c1)C1(CCN(S(=O)(=O)c3ccc(F)cc3F)C1)C(=O)N2C (configuration not stated)	927 s
Cc1ccc(Cl)c(NC(=O)c2nc(C)oc2C)c1	1140 s
O=S(=O)(c1ccc2c(c1)CCC2)N1CCc2nc(-c3ccccc3)ncc2C1	1190 s
O=C(c1cn(-c2cc(N3CCSCC3)ncn2)cn1)N1CCN(c2ccccc2)CC1	877 s
Cc1ccc(NC(=O)Cn2c(N3CCCC3)nc(C)cc2=O)c(C)c1	669 s
Cc1ccc(NC(=O)Cn2nc3c(N4CCN(c5ccccc5)CC4)nccn3c2=O)cc1C	975 s
CC(C)N1C(=O)c2cccnc2Sc2cc(NC(=O)c3ccsc3)ccc21	832 s
Cc1ccc2[nH]cc(CCN3CC(C(=O)Nc4cccc(F)c4)CC3=O)c2c1 (configuration not stated)	842 s
CC(C)CNC(=O)CCc1nc2ccccc2n(CC(=O)NCc2ccccc2)c1=O	769 s
Cc1ccc(-c2nc(-c3ccc(-c4noc(CNS(=O)(=O)c5ccccc5)n4)cc3)cs2)s1	1290 s
Cc1sc(NC(=O)c2ccccc2)c(CN(C)C)c1C	625 s
CN1C(=O)c2cccnc2Sc2cc(NC(=O)c3cccc(C(F)(F)F)c3)ccc21	910 s
O=C(CCSc1ccc(F)cc1)Nc1nc2c(s1)CCC2	878 s
CC(C)CCNC(=O)CCC(=O)N1CC2CCCN2c2ccccc21 (configuration not stated)	902 s
CNC(=O)c1ccc(-c2nc3cc(NS(=O)(=O)c4cc(F)ccc4C)ccc3n2C)cc1	832 s
CCOC(=O)N1CCN(c2nc(F)c3c(c2F)S(=O)(=O)CCN3C2CCCCC2)CC1	1170 s
